# Results taken from patent US4156724A, “N-acylamino-alpha-arylacetamido cephalosporins and antibacterial compositions and methods containing them” (Sumitomo Chemical Company, Limited, priority 1974, dated 1979).
# Columns and labels:
# Format in all cases: cell-based
# [1] = system: Staphylococcus aureus 209 P; assay: Minimum Inhibitory Concentration, Staphylococcus aureus 209 P; details: Staphylococcus aureus 209 P; read-out: Minimum Inhibitory Concentration
# Method: (§1) anti-microbial activity tests were carried out on the compounds obtained in the Examples.
# [2] = system: Serratia No. 72; assay: Minimum Inhibitory Concentration, Serratia No. 72
# Method: as §1
# [3] = system: Escherichia coli NIHJ; assay: Minimum Inhibitory Concentration, Escherichia coli NIHJ; details: Escherichia coli NIHJ; read-out: Minimum Inhibitory Concentration
# Method: as §1
# [4] = system: Proteus vulgaris HX 19; assay: Minimum Inhibitory Concentration, Proteus vulgaris HX 19; details: HX19; Proteus vulgaris HX 19; read-out: Minimum Inhibitory Concentration
# Method: as §1
# [5] = system: Klebsiella pneumoniae 602; assay: Minimum Inhibitory Concentration, Klebsiella pneumoniae 602; details: Klebsiella pneumoniae, 602, Klebsiella pneumoniae 602; read-out: Minimum Inhibitory Concentration
# Method: as §1
# [6] = system: Pseudomonas aeruginosa 104; assay: Minimum Inhibitory Concentration, Pseudomonas aeruginosa 104; details: Pseudomonas aeruginosa 104; read-out: Minimum Inhibitory Concentration
# Method: as §1
# [7] = system: Staphylococcus aureus FS 289; assay: Minimum Inhibitory Concentration, Staphylococcus aureus FS 289; details: FS289; Staphylococcus aureus FS 289, strain resistant to penicillin; read-out: Minimum Inhibitory Concentration
# Method: as §1
# *Staphylococcus aureus FS 289: strain resistant to penicillin
# [8] = system: Enterobacter aerogeneus No. 75; assay: Minimum Inhibitory Concentration, Enterobacter aerogeneus No. 75; details: Enterobacter aerogeneus No. 75; read-out: Minimum Inhibitory Concentration
# Method: as §1
Structure (SMILES),MIC [1] [µg/mL],MIC [2] [µg/mL],MIC [3] [µg/mL],MIC [4] [µg/mL],MIC [5] [µg/mL],MIC [6] [µg/mL],MIC [7] [µg/mL],MIC [8] [µg/mL]
CSc1ccc2ncc(C(=O)N[C@@H](C(=O)N[C@@H]3C(=O)N4C(C(=O)O)=C(COC(C)=O)CS[C@H]34)c3cccc(NC(N)=O)c3)c(O)c2n1 [Example 34],0.78,50,3.13,0.78,3.13,6.25,6.25,12.5
CC(=O)OCC1=C(C(=O)O)N2C(=O)[C@@H](NC(=O)[C@H](NC(=O)c3cnc4nc(C)c(C)nc4c3O)c3ccc(NC(N)=O)cc3)[C@H]2SC1 [Example 35],1.56,50,6.25,0.39,3.13,6.25,6.25,25
NC(=O)Nc1cccc([C@@H](NC(=O)c2cnc3cccnc3c2O)C(=O)N[C@@H]2C(=O)N3C(C(=O)O)=C(CSc4nnc(CO)s4)CS[C@H]23)c1 [Example 36],0.78,12.5,3.13,0.2,1.56,3.13,6.25,6.25
NC(=O)Nc1cccc([C@@H](NC(=O)c2cnc3cccnc3c2O)C(=O)N[C@@H]2C(=O)N3C(C(=O)O)=C(CSc4ccc(O)nn4)CS[C@H]23)c1 [Example 37],0.78,12.5,1.56,0.2,1.56,3.13,6.25,6.25
Cn1nnnc1SCC1=C(C(=O)O)N2C(=O)[C@@H](NC(=O)[C@H](NC(=O)c3cnc4cccnc4c3O)c3cccc(NC(N)=O)c3)[C@H]2SC1 [Example 38],0.78,12.5,1.56,0.1,1.56,3.13,6.25,3.13
COc1ccc2ncc(C(=O)N[C@@H](C(=O)N[C@@H]3C(=O)N4C(C(=O)O)=C(CSc5nnnn5C)CS[C@H]34)c3cccc(NC(N)=O)c3)c(O)c2n1 [Example 39],0.78,12.5,1.56,0.1,1.56,3.13,6.25,3.13
CSc1ccc2ncc(C(=O)N[C@@H](C(=O)N[C@@H]3C(=O)N4C(C(=O)O)=C(CSc5nnc(C)s5)CS[C@H]34)c3cccc(NC(N)=O)c3)c(O)c2n1 [Example 40],0.78,12.5,3.13,0.1,1.56,3.13,6.25,6.25
CSc1cnc2c(O)c(C(=O)NC(C(=O)NC3C(=O)N4C(C(=O)O)=C(CSc5nnnn5C)CSC34)c3cccc(NC(N)=O)c3)cnc2n1 (centres unmarked) [Example 41],1.56,12.5,3.13,0.2,3.13,6.25,6.25,6.25
Cc1nc2ncc(C(=O)NC(C(=O)NC3C(=O)N4C(C(=O)O)=C(CSc5nnnn5C)CSC34)c3cccc(NC(N)=O)c3)c(O)c2nc1C (centres unmarked) [Example 42],1.56,12.5,3.13,0.2,3.13,6.25,6.25,6.25
Cn1nnnc1SCC1=C(C(=O)O)N2C(=O)C(NC(=O)C(NC(=O)c3cnc4sccc4c3O)c3cccc(NC(N)=O)c3)C2SC1 (centres unmarked) [Example 43],0.78,12.5,6.25,0.39,3.13,6.25,6.25,6.25
Cn1nnnc1SCC1=C(C(=O)O)N2C(=O)C(NC(=O)C(NC(=O)c3cnc4scnc4c3O)c3cccc(NC(N)=O)c3)C2SC1 (centres unmarked) [Example 44],0.78,12.5,6.25,0.39,3.13,6.25,6.25,6.25
NC(=O)Nc1cccc(C(NC(=O)c2cnccc2O)C(=O)NC2C(=O)N3C(C(=O)O)=C(CSc4nnc(CO)s4)CSC23)c1 (centres unmarked) [Example 45],0.39,50,12.5,0.39,3.13,12.5,6.25,12.5
NC(=O)Nc1cccc(C(NC(=O)c2cnccc2O)C(=O)NC2C(=O)N3C(C(=O)O)=C(CSc4ccc(O)nn4)CSC23)c1 (centres unmarked) [Example 46],0.78,50,12.5,0.39,3.13,12.5,6.25,12.5
NC(=O)Nc1ccc(C(NC(=O)c2cnccc2O)C(=O)NC2C(=O)N3C(C(=O)O)=C(CSc4nnc(CO)s4)CSC23)cc1 (centres unmarked) [Example 47],0.78,50,12.5,0.39,3.13,12.5,6.25,12.5
NC(=O)Nc1cccc(C(NC(=O)c2ccnnc2O)C(=O)NC2C(=O)N3C(C(=O)O)=C(CSc4nnc(CO)s4)CSC23)c1 (centres unmarked) [Example 48],0.78,100,12.5,0.78,3.13,25,12.5,25
NC(=O)Nc1cccc(C(NC(=O)c2cccnc2O)C(=O)NC2C(=O)N3C(C(=O)O)=C(CSc4nnc(CO)s4)CSC23)c1 (centres unmarked) [Example 49],0.78,50,12.5,0.78,6.25,25,12.5,25
